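96-well plates; 48 h exposure; 5 concentrations. Endpoints by linear interpolation between flanking doses. Not reached: highest tested concentration assigned. Abbreviation: GI50, concentration required for 50% inhibition of growth. At the TGI there is no net growth.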
How the values were obtained:
Assay in all cases: inhibition of tumour cell growth, NCI panel, 48 h
[1] = tested on: A549 NSCLC
[2] = tested on: BT-549 breast
[3] = tested on: COLO 205 colon
[4] = tested on: DU-145 prostate
[5] = tested on: MALME-3M melanoma
[6] = tested on: MDA-MB-435
[7] = tested on: TK-10 renal
[8] = tested on: UO-31 renal
[9] = tested on: LOX IMVI melanoma
[10] = tested on: SR leukemia

| Structure (SMILES) | TGI [1] [µM] | TGI [2] [µM] | TGI [3] [µM] | TGI [4] [µM] | TGI [5] [µM] | TGI [6] [µM] | TGI [7] [µM] | TGI [8] [µM] | TGI [9] [µM] | TGI [10] [µM] | GI50 [1] [µM] | GI50 [9] [µM] | GI50 [6] [µM] | GI50 [8] [µM] | GI50 [3] [µM] | GI50 [4] [µM] | GI50 [5] [µM] | GI50 [10] [µM] | GI50 [7] [µM] |
| --- | --- | --- | --- | --- | --- | --- | --- | --- | --- | --- | --- | --- | --- | --- | --- | --- | --- | --- | --- |
| Nn1c(CCCCCCCCc2nnc(COc3c(O)ccc4ccccc34)n2N)nnc1COc1c(O)ccc2ccccc12 | > 100 | > 100 | > 100 | > 100 | > 100 | > 100 | > 100 | > 100 | – | – | – | – | – | – | – | – | – | – | – |
| C/C(=N/NC(N)=S)c1ccc2ccccc2c1 | > 100 | – | 41.9 | – | > 100 | – | > 100 | – | > 100 | > 100 | – | – | – | – | – | – | – | – | – |
| Nc1nn2c(C(Br)Br)cc(C(Br)Br)nc2c1[N+](=O)[O-] | 20.1 | 2.09 | 1.94 | 3.46 | 2.14 | 1.76 | 2.28 | 2.5 | 0.799 | – | – | – | – | – | – | – | – | – | – |
| COc1ccc(-c2cc(=O)c3cc4c(cc3[nH]2)OCO4)c(OC)c1OC | > 100 | – | > 100 | – | > 100 | – | > 100 | > 100 | > 100 | 70.9 | – | – | – | – | – | – | – | – | – |
| O=C1CCC(=Nc2ccc(Cl)cc2)N1C(=O)COc1ccc(OCC(=O)N2C(=O)CSC2=Nc2ccc(Cl)cc2)cc1 | > 100 | > 100 | > 100 | > 100 | > 100 | > 100 | > 100 | > 100 | > 100 | – | – | – | – | – | – | – | – | – | – |
| COP(=O)(O)/C=C/C(NC(=O)C(Cl)(Cl)Cl)c1ccccc1 (stereo not drawn) | > 100 | > 100 | > 100 | > 100 | > 100 | > 100 | > 100 | > 100 | > 100 | – | – | – | – | – | – | – | – | – | – |
| c1ccc2c(c1)[nH]c1nc3cc(-c4ccc5nc6c(nc5c4)[nH]c4ccccc46)ccc3nc12 | > 100 | > 100 | – | > 100 | > 100 | > 100 | > 100 | > 100 | > 100 | – | – | – | – | – | – | – | – | – | – |
| CCCCCCCCCC[C@H](O)[C@H]1CC[C@H]([C@H]2CC[C@H]([C@H](O)CC[C@H](O)CCCCCCC[C@@H](O)CC3=C[C@H](C)OC3=O)O2)O1 | > 100 | > 100 | 78.5 | – | > 100 | > 100 | > 100 | > 100 | > 100 | – | 7.18 | 1.26 | 40.3 | 23.6 | – | – | – | – | – |
| COc1cc2c(cc1OC)C1c3ccccc3CCN1CC2 (stereo not drawn) | > 100 | – | > 100 | > 100 | > 100 | > 100 | > 100 | – | > 100 | > 100 | – | – | – | – | – | – | – | – | – |
| N#Cc1c(-c2ccccc2)/c(=C\Nc2ccc(Cl)cc2)c(=O)n2c1nc1ccccc12 | > 100 | > 100 | > 100 | – | > 100 | > 100 | > 100 | > 100 | > 100 | – | – | – | – | – | – | – | – | – | – |
| CN(C)C(CN)CC1=C(CC(CN)N(C)C)CCC1 (stereo not drawn) | > 100 | – | > 100 | – | > 100 | – | – | > 100 | > 100 | – | – | – | – | – | – | – | – | – | – |
| O=C(O)C1CC(c2ccc(F)cc2)=Nc2ccc(F)cc2S1 (stereo not drawn) | > 100 | > 100 | > 100 | > 100 | > 100 | > 100 | > 100 | > 100 | – | – | – | – | – | – | – | – | – | – | – |
| CCC12C[N+]3([O-])CCc4c([nH]c5ccccc45)C(C(=O)OC)(c4cc5c(cc4OC)N(C)C4C(O)(C(=O)OC)C(OC(C)=O)C6(CC)C=CCN7CCC54C76)CC(C3)C1O2 (stereo not drawn) | 29.9 | – | 4.44 | – | 22.9 | – | 26.8 | 14.4 | 51.7 | – | – | – | – | – | – | – | – | – | – |
| COC(=O)c1csnn1 | > 100 | – | > 100 | – | > 100 | – | > 100 | > 100 | > 100 | > 100 | – | – | – | – | – | – | – | – | – |
| CC(=O)OC(C)c1cc2c(s1)C(=O)c1sccc1C2=O (stereo not drawn) | 5.29 | 1.68 | 3.59 | 0.56 | 0.407 | – | 3.86 | 3.28 | > 100 | > 100 | – | – | – | – | – | – | – | – | – |
| NC(=O)C(=O)N/N=C1/c2ccccc2CC1C1(O)C(=O)Nc2c(Cl)cc(Cl)cc21 (stereo not drawn) | > 100 | – | > 100 | – | > 100 | – | > 100 | > 100 | > 100 | > 100 | – | – | – | – | – | – | – | – | – |
| CCC1=CCC23C(=O)C=CC(=O)C2(C1)C(=O)c1cccc(OC)c1C3=O (stereo not drawn) | 51.5 | – | 28.4 | 32.2 | 30 | 30.8 | 33.5 | 22.7 | 29.9 | 41.4 | – | – | – | – | – | – | – | – | – |
| CCOP(=O)(OCC)C1C(CO)OC(n2ccc(=O)[nH]c2=O)C1O (stereo not drawn) | > 100 | > 100 | – | – | > 100 | – | > 100 | > 100 | > 100 | > 100 | – | – | – | – | – | – | – | – | – |
| Oc1ccc(-c2nnc3sc(-c4ccc(F)cc4)nn23)cc1 | > 100 | – | 34.1 | > 100 | > 100 | > 100 | > 100 | > 100 | > 100 | > 100 | > 100 | 34.5 | > 100 | > 100 | 16.9 | 51.2 | > 100 | 15.1 | 69.8 |

| Structure (SMILES) | TGI [1] [µM] | TGI [2] [µM] | TGI [3] [µM] | TGI [4] [µM] | TGI [5] [µM] | TGI [6] [µM] | TGI [7] [µM] | TGI [8] [µM] | TGI [9] [µM] | TGI [10] [µM] | GI50 [1] [µM] | GI50 [9] [µM] | GI50 [6] [µM] | GI50 [8] [µM] | GI50 [3] [µM] | GI50 [4] [µM] | GI50 [5] [µM] | GI50 [10] [µM] | GI50 [7] [µM] |
| --- | --- | --- | --- | --- | --- | --- | --- | --- | --- | --- | --- | --- | --- | --- | --- | --- | --- | --- | --- |
| CC(C)=C[C@@H]1C[C@H](n2cc(C)c(=O)[nH]c2=O)ON1CCO | > 100 | – | > 100 | > 100 | > 100 | > 100 | > 100 | > 100 | > 100 | > 100 | – | – | – | – | – | – | – | – | – |
| CCOC(=O)C1=C(C(C)=O)CSC(c2ccccc2)=N1 | > 100 | – | > 100 | – | > 100 | – | – | > 100 | > 100 | – | – | – | – | – | – | – | – | – | – |
| COC(=O)c1c(C)cccc1/C=C1/Cc2c(C)cccc2C1=O | > 100 | > 100 | – | > 100 | > 100 | > 100 | > 100 | > 100 | > 100 | – | – | – | – | – | – | – | – | – | – |
| COc1cc(/C=C/C(=O)O)ccc1C(=O)O/C=C/c1ccccc1 | > 100 | – | > 100 | – | > 100 | – | – | > 100 | > 100 | – | – | – | – | – | – | – | – | – | – |
| O=c1c2c([nH]c3cc4c(cc13)OCO4)-c1ccccc1CC2 | > 100 | – | > 100 | – | > 100 | – | > 100 | > 100 | > 100 | > 100 | – | – | – | – | – | – | – | – | – |
| COc1cc2c(cc1OC)C(N(C)C)C(c1ccccc1)=C2Cl (stereo not drawn) | – | – | 32.6 | – | – | – | > 100 | 32 | 31.9 | 50.4 | – | – | – | – | – | – | – | – | – |
| Cc1ccc(S(=O)(=O)Oc2cc(N)c3c(n2)CCC3)cc1 | > 100 | > 100 | > 100 | > 100 | – | > 100 | > 100 | > 100 | > 100 | – | – | – | – | – | – | – | – | – | – |
| COC(=O)c1ccccc1/C=C1/Cc2ccccc2C1=O | > 100 | – | > 100 | > 100 | > 100 | > 100 | > 100 | > 100 | 39.9 | > 100 | – | – | – | – | – | – | – | – | – |
| CC(C)(C)N=c1n(C(C)(C)C)oc(=O)n1C(C)(C)C | > 100 | > 100 | > 100 | – | > 100 | – | > 100 | > 100 | > 100 | > 100 | – | – | – | – | – | – | – | – | – |
| C1CCSCCCCSCCCCSCCCCSC1 | > 100 | > 100 | > 100 | > 100 | – | > 100 | > 100 | > 100 | > 100 | – | – | – | – | – | – | – | – | – | – |
| CC(C)(C)C1=Cc2cc3cc(C(C)(C)C)[nH]c(=O)c3cc2S(=O)(=O)N1 | 75.3 | – | 39.9 | – | 57.7 | – | 88.3 | 35.8 | – | 61.5 | – | – | – | – | – | – | – | – | – |
| O=C1NCCCc2nonc21 | > 100 | – | > 100 | > 100 | > 100 | > 100 | > 100 | > 100 | > 100 | > 100 | – | – | – | – | – | – | – | – | – |
| CSC1CC2C(CC1(C)O)C2(C)C (stereo not drawn) | > 100 | – | > 100 | – | > 100 | – | > 100 | > 100 | > 100 | – | – | – | – | – | – | – | – | – | – |
| C/C(=C\c1ccccc1)C(=O)CCN1CCOCC1 | > 100 | – | 31 | – | 33 | – | – | 41.5 | 34.6 | – | – | – | – | – | – | – | – | – | – |
| COc1cc(C2c3cc4c(cc3OC(NN=C(C)C)C2C)OCO4)cc(OC)c1O (stereo not drawn) | > 100 | > 100 | > 100 | > 100 | > 100 | – | > 100 | > 100 | – | 16.5 | – | – | – | – | – | – | – | – | – |
| COc1cc(/C=C2\C(=O)N(C(=O)Cc3ccccc3)N=C2C)ccc1O | > 100 | – | > 100 | – | > 100 | – | > 100 | > 100 | > 100 | > 100 | – | – | – | – | – | – | – | – | – |
| COc1ccccc1NC(=O)CC(=O)N1N=C(C)C(N=Nc2ccc(S(N)(=O)=O)cc2)C1=O (stereo not drawn) | > 100 | – | > 100 | – | > 100 | – | > 100 | > 100 | > 100 | > 100 | – | – | – | – | – | – | – | – | – |
| COCOc1ccc(OC)cc1 | > 100 | – | > 100 | – | > 100 | – | – | > 100 | > 100 | – | – | – | – | – | – | – | – | – | – |
| CCN(CC)CCOC(NC(C)=O)(c1ccccc1)c1ccccc1 | > 100 | – | > 100 | > 100 | > 100 | > 100 | > 100 | > 100 | – | > 100 | – | – | – | – | – | – | – | – | – |
